“Also recorded” adds a separate entry of the source. Where two headings read alike, the source gives them in different places. Where a SMILES comes first, the peptide text is derived from it.
Tests used:
[1] = tested on: HepG2 cells; test: MTT cell proliferation assay, HepG2; format: cell-based; settings: 72 h, serum-free medium, 1 μM to 300 μM, means of at least 3 independent experiments (Figure 5a)
Description: (§1) To evaluate peptide growth inhibitory properties, 3000 (Huh7) and 4000 (HepG2) cells were seeded in triplicate in 96-well plates. After 24 h, media was changed for serum-free medium and increasing concentrations of peptide were added. After 72 h, 25 μL of 3-(4,5-Dimethylthiazol-2-yl)-2,5-diphenyltetrazolium bromide (MTT) reagent (5 mg/mL; Sigma Aldrich) was added to each well and, after 4-hour incubation, medium was carefully removed and cells were lysed in acidic isopropanol (24 : 1 HCl 1 N). Absorbance at 550 nm and 650 nm (reference wavelength) was measured using a plate spectrophotometer.
(§2) Figure 5 Antiproliferative properties of ML peptide on the tested cell lines. […] Data are means ± SEM of at least 3 independent experiments.

[2] = tested on: Huh7 cells; test: MTT cell proliferation assay, Huh7; format: cell-based; settings: 72 h, serum-free medium, 1 μM to 300 μM, means of at least 3 independent experiments (Figure 5b)
Description: as §1, §2

[3] = tested on: HT1080 cells; test: MTT cell proliferation assay, HT1080; format: cell-based; settings: 72 h, serum-free medium, 1 μM to 300 μM, means of at least 3 independent experiments (Figure 5c)
[4] = target: recombinant PACE4; settings: in vitro inhibition, read-out: K i against recombinant PACE4, cited from earlier work

Row | SMILES | inhibition of cell proliferation relative to untreated cells [1] | inhibition of cell proliferation relative to untreated cells [2] | inhibition of cell proliferation relative to untreated cells [3] | Ki ([4]; independently of the addition of the NOTA moiety) [nM] | Ki [4] [nM]
1 | CC(=O)N[C@@H](CC(C)C)C(=O)N[C@@H](CC(C)C)C(=O)N[C@@H](CC(C)C)C(=O)N[C@@H](CC(C)C)C(=O)N[C@@H](CCCNC(=N)N)C(=O)N[C@H](C(=O)N[C@@H](CCCCN)C(=O)N[C@@H](CCCNC(=N)N)C(N)=O)C(C)C [ML peptide, Ac-LLLLRVKR-NH2] (Ac-LLLLRVKR-NH2) | dose-response inhibition of cell proliferation | dose-response inhibition of cell proliferation | dose-response inhibition of cell proliferation; also recorded: lowest response | 20 | 
2 | CC(=O)N[C@@H](CCCNC(=N)N)C(=O)N[C@@H](CC(C)C)C(=O)N[C@@H](CCCNC(=N)N)C(=O)N[C@@H](CC(C)C)C(=O)N[C@@H](CC(C)C)C(=O)N[C@@H](CCCCN)C(=O)N[C@H](C(=O)N[C@@H](CC(C)C)C(N)=O)C(C)C [scramble version of the ML peptide, Ac-RLRLLKVL-NH2, reference compound] (Ac-RLRLLKVL-NH2) | inactive | inactive | inactive |  | > 10000

Source: publication PMC4465654, “Multi-Leu PACE4 Inhibitor Retention within Cells Is PACE4 Dependent and a Prerequisite for Antiproliferative Activity” (BioMed Research International, 2015)
